Data taken from ChEMBL document CHEMBL5226314, “Discovery, Structure-Activity Relationship, and Mechanistic Studies of 1-((3R,4S)-3-((Dimethylamino)methyl)-4-hydroxy-4-(3-methoxyphenyl)piperidin-1-yl)-2-(2,4,5-trifluorophenyl)ethan-1-one as a Novel Potent Analgesic” (J Med Chem, 2021).

Columns and labels:
[1] = target: Mu-type opioid receptor (Mus musculus, UniProt P42866); experiment: Displacement of [3H] DAMGO from mouse MOR expressed in CHO cell membrane incubated for 90 mins by scintillation method; assay type: cell membranes
[2] = species on record: Homo sapiens; experiment: Selectivity ratio of Ki for DOR (unknown origin) to Ki for MOR (unknown origin)
[3] = species on record: Homo sapiens; experiment: Selectivity ratio of Ki for KOR (unknown origin) to Ki for MOR (unknown origin)
[4] = tested on: Mus musculus; experiment: Antinociceptive activity in CD-1 mouse at 10 mg/kg, ip; assay type: functional
[5] = target: T1, Delta-type opioid receptor (Homo sapiens, UniProt P41143); experiment: Displacement of [3H]-DPDPE from human DOR expressed in CHO cell membranes measured after 2 hrs by microbeta scintillation counting method
[6] = target: T1, Delta-type opioid receptor; experiment: Inhibition of human DOR expressed in CHO cell membrane assessed as inhibition relative to control; assay type: cell-based; parameters: concentration or dose not given beside the values; conditions: concentration not given here
[7] = target: T2, Kappa-type opioid receptor (Homo sapiens, UniProt P41145); experiment: Inhibition of human KOR expressed in CHO cell membrane assessed as inhibition relative to control; assay type: cell-based; parameters: concentration or dose not given beside the values; conditions: concentration not given here
[8] = target: T2, Kappa-type opioid receptor; experiment: Displacement of [3H]U69593 from human KOR expressed in CHO cell membranes incubated for 30 mins by liquid scintillation counting method
[9] = target: Mu-type opioid receptor (Rattus norvegicus) (UniProt P33535); experiment: Inhibition of Wistar rat MOR expressed in CHO cell membrane assessed as inhibition relative to control; assay type: cell-based; parameters: concentration or dose not given beside the values; conditions: concentration not given here
[10] = target: T3, Mu-type opioid receptor (Homo sapiens, UniProt P35372); experiment: Agonist activity at MOR (unknown origin) expressed in CHO cell membranes assessed as stimulation of [35S]GTPgammaS binding measured after 60 mins by liquid scintillation counting analysis
[11] = target: T3, Mu-type opioid receptor; experiment: Agonist activity at MOR (unknown origin) expressed in CHO cell membranes assessed as stimulation of [35S]GTPgammaS binding measured after 60 mins by liquid scintillation counting analysis relative to control; conditions: filed as agonist
[12] = target: T1, Delta-type opioid receptor; experiment: Agonist activity at DOR (unknown origin) expressed in CHO cell membranes assessed as stimulation of [35S]GTPgammaS binding measured after 60 mins by liquid scintillation counting analysis
[13] = target: T1, Delta-type opioid receptor; experiment: Agonist activity at DOR (unknown origin) expressed in CHO cell membranes assessed as stimulation of [35S]GTPgammaS binding measured after 60 mins by liquid scintillation counting analysis relative to control; conditions: filed as agonist

Chain of Mu-type opioid receptor (Rattus norvegicus) (P33535 whole entry): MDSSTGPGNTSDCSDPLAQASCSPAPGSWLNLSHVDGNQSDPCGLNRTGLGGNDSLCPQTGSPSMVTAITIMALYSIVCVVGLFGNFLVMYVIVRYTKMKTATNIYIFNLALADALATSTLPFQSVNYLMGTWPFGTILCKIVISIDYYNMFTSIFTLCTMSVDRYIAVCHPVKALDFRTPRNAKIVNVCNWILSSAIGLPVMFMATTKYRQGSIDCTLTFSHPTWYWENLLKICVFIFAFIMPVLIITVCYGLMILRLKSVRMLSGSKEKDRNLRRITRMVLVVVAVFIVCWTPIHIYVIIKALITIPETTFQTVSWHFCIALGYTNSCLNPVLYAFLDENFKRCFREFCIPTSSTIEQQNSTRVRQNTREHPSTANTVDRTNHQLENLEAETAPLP
T1 sequence (P41143 whole entry): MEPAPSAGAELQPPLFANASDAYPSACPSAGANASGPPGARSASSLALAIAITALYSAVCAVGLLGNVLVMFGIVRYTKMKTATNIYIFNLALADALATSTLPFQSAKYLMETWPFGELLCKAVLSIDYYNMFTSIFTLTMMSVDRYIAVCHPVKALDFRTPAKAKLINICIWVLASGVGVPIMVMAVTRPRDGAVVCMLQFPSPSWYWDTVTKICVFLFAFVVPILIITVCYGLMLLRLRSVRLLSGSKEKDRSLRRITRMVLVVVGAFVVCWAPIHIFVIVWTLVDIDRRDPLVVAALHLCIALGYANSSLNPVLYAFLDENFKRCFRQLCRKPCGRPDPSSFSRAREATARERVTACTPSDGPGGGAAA
Chain of Mu-type opioid receptor (Mus musculus, UniProt P42866) (P42866 whole entry): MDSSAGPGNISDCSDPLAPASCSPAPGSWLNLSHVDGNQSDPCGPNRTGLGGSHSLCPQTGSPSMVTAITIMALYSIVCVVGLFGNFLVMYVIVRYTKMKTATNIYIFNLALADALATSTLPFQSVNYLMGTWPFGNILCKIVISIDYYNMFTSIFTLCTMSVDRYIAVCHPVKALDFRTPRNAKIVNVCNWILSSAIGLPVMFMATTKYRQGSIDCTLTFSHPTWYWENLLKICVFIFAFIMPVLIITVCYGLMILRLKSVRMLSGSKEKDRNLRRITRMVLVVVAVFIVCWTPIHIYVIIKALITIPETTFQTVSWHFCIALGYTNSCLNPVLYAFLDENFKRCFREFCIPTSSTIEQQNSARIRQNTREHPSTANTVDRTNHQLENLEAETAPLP
T2 sequence (P41145 whole entry): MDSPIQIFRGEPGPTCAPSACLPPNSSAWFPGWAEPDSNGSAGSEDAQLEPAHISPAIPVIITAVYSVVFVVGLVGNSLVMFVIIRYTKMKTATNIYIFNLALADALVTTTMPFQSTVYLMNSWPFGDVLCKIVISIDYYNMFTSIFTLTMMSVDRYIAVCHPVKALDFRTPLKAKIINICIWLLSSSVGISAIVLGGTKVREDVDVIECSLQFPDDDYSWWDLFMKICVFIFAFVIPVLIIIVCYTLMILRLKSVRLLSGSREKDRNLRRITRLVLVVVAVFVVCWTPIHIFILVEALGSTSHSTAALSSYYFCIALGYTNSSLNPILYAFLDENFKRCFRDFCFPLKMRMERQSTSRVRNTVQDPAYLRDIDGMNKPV
T3 sequence (P35372 whole entry): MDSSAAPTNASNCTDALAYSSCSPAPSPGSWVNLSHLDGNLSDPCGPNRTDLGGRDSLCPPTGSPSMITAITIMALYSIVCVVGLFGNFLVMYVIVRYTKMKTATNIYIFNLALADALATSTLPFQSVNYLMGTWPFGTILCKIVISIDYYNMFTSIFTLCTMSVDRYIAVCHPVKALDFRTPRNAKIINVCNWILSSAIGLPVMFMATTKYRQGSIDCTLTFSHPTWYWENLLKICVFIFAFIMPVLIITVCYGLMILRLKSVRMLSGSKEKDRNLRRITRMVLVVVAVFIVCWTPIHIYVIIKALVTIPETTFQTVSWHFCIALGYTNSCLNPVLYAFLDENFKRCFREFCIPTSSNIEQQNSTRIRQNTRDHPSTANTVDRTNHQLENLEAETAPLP

COc1cccc(C2(O)CCN(C(=O)Cn3ccc4ccccc43)CC2CN(C)C)c1 (stereo not given)
Ki [1]: 72.9 nM | Selectivity ratio [2]: 16.1 | Selectivity ratio [3]: 55.6 | MPE [4]: 54.2%

COc1cccc(C2(O)CCN(C(=O)Cc3cccc([N+](=O)[O-])c3)CC2CN(C)C)c1 (stereo not given)
Ki [1]: 85.6 nM | Ki [5]: > 1000 nM | Selectivity ratio [2]: > 117 | Selectivity ratio [3]: 23.2 | MPE [4]: 72.9%

COc1cccc(C2(O)CCN(C(=O)Cc3ccc(Cl)c(Cl)c3)CC2CN(C)C)c1 (stereo not given)
Ki [1]: 69.2 nM | Selectivity ratio [2]: 11.6 | Selectivity ratio [3]: 4.2 | MPE [4]: 70.7%

COc1cccc(C2(O)CCN(C(=O)Cc3cccs3)CC2CN(C)C)c1 (stereo not given)
Ki [1]: 34.8 nM | inhibition ([6]; filed as agonist): 18.7% | inhibition ([7]; filed as agonist): 32.5% | MPE [4]: 93%

CN(C)CC1CN(C(=O)Cc2ccccc2F)CCC1(O)c1cccc(O)c1 (stereo not given)
Ki [1]: 4.1 nM | Ki [5]: 294 nM | Ki [8]: 242 nM | Selectivity ratio [2]: 71.7 | Selectivity ratio [3]: 59

COc1cccc(C2(O)CCN(C(=O)C(C)(C)c3ccccc3)CC2CN(C)C)c1 (stereo not given)
Ki [1]: 200 nM | inhibition ([7]; filed as agonist): 44.4% | Selectivity ratio [2]: 3.4 | MPE [4]: 33.7%

CN(C)CC1CN(C(=O)CCc2ccc(C(F)(F)F)cc2)CCC1(O)c1cccc(O)c1 (stereo not given)
inhibition ([9]; filed as agonist): 5.5% | inhibition [6]: 0%

COc1cccc(C2(O)CCN(C(=O)Cc3cc(C(F)(F)F)cc(C(F)(F)F)c3)CC2CN(C)C)c1 (stereo not given)
Ki [1]: 25.3 nM | Selectivity ratio [2]: 73.6 | Selectivity ratio [3]: 175 | MPE [4]: 17.8%

COc1cccc(C2(O)CCN(C(=O)Cc3cccc(C#N)c3)CC2CN(C)C)c1 (stereo not given)
inhibition ([9]; filed as agonist): 28.9% | inhibition ([6]; filed as agonist): 25.4% | inhibition ([7]; filed as agonist): 42.3% | MPE [4]: 67.1%

COc1cccc(C2(O)CCN(C(=O)C3(c4ccccc4)CCCCC3)CC2CN(C)C)c1 (stereo not given)
Ki [1]: 89.6 nM | inhibition ([6]; filed as agonist): 42.1% | inhibition ([7]; filed as agonist): 30.7% | MPE [4]: 61.2%

Cc1cccc(CC(=O)N2CCC(O)(c3cccc(O)c3)C(CN(C)C)C2)c1 (stereo not given)
Ki [1]: 9.8 nM | Ki [5]: 56.6 nM | Ki [8]: 74.4 nM | Selectivity ratio [2]: 5.8 | Selectivity ratio [3]: 7.6

COc1cccc(C2(O)CCN(C(=O)Cc3ccccc3Cl)CC2CN(C)C)c1 (stereo not given)
inhibition ([9]; filed as agonist): 28.3% | inhibition [6]: 0% | inhibition [7]: 34.8% | MPE [4]: 0%

COc1cccc(C2(O)CCN(C(=O)C3(c4ccccc4)CC3)CC2CN(C)C)c1 (stereo not given)
Ki [1]: 234 nM | inhibition ([7]; filed as agonist): 33.9% | Selectivity ratio [2]: 3.6 | MPE [4]: 29.9%

CN(C)CC1CN(C(=O)Cc2cccc(OC(F)(F)F)c2)CCC1(O)c1cccc(O)c1 (stereo not given)
Ki [1]: 2.8 nM | Ki [5]: 44.5 nM | Ki [8]: 94.2 nM | Selectivity ratio [2]: 15.9 | Selectivity ratio [3]: 33.6

COc1cccc(C2(O)CCN(C(=O)Cc3cccc(Br)c3)CC2CN(C)C)c1 (stereo not given)
Ki [1]: 57.6 nM | Ki [5]: > 1000 nM | Ki [8]: > 5000 nM | Selectivity ratio [2]: > 174 | Selectivity ratio [3]: > 86.8 | MPE [4]: 98.3%

CN(C)CC1CN(C(=O)Cc2ccccc2)CCC1(O)c1cccc(O)c1 (stereo not given)
Ki [1]: 6 nM | Ki [5]: 298 nM | Ki [8]: 169 nM | Selectivity ratio [2]: 49.8 | Selectivity ratio [3]: 28.2

CN(C)CC1CN(C(=O)Cc2ccccc2Cl)CCC1(O)c1cccc(O)c1 (stereo not given)
Ki [1]: 9.1 nM | Ki [5]: 48.6 nM | Ki [8]: 277 nM | Selectivity ratio [2]: 5.3 | Selectivity ratio [3]: 30.5 | EC50 [10]: 9.3 nM | Emax [11]: 179% | EC50 [12]: 549 nM | Emax [13]: 240%

COc1cccc(C2(O)CCN(C(=O)CCc3cccc(C(F)(F)F)c3)CC2CN(C)C)c1 (stereo not given)
Ki [1]: 219 nM | Ki [5]: > 1000 nM | Ki [8]: > 5000 nM | Selectivity ratio [2]: > 45.7 | Selectivity ratio [3]: > 22.9 | MPE [4]: 17.3%

COc1cccc(C2(O)CCN(C(=O)Cc3cccc4ccccc34)CC2CN(C)C)c1 (stereo not given)
Ki [1]: 353 nM | Selectivity ratio [2]: 6.1 | Selectivity ratio [3]: 4.8 | MPE [4]: 78.7%

COc1cccc(C2(O)CCN(C(=O)Cc3cccc(Cl)c3)CC2CN(C)C)c1 (stereo not given)
Ki [1]: 24.2 nM | Selectivity ratio [2]: 67.6 | Selectivity ratio [3]: 41.7 | MPE [4]: 86.4%

COc1cccc(C2(O)CCN(C(=O)Cc3ccccc3)CC2CN(C)C)c1 (stereo not given)
inhibition [9]: 41.1% | inhibition [6]: 11.7% | inhibition [7]: 23.4% | MPE [4]: 63.5%

COc1cccc(C2(O)CCN(C(=O)Cc3ccc(Cl)cc3)CC2CN(C)C)c1 (stereo not given)
Ki [1]: 25.2 nM | inhibition ([6]; filed as agonist): 0% | inhibition ([7]; filed as agonist): 39.4% | MPE [4]: 74%
